From paper PMC8228819, “Comparison of a Short Linear Antimicrobial Peptide with Its Disulfide-Cyclized and Cyclotide-Grafted Variants against Clinically Relevant Pathogens” (Microorganisms, 2021)
“Also recorded” adds a separate entry of the source. Read-outs that look alike come from different tables or passages of the source. Bridge positions count the residues as written; N and C are the ends. Peptide text beside a SMILES is read from it.

Columns and labels:
pH stability = type: physicochemical; conditions: 20 μM, pH 1.2 and 7.5, 24 h, UPLC
Procedure: (§1) Serum stability assays were performed in 100% human serum (Sigma-Aldrich, St. Louis MO, USA, human male AB plasma). Serum was centrifuged to remove lipids and incubated with the peptides at 100 μM for 0, 0.5, 1, 3, 6, and 24 h at 37 °C. Serum proteins were precipitated by adding 3 μL of TFA to 40 μL of peptide – serum sample (final TFA 7%). The remaining supernatant was diluted with 50:50 solvent A/B. The amount of peptide remaining (%) was quantified by UPLC-MS analysis. For pH stability experiments, peptides were incubated at a concentration of 20 μM at pH 1.2 and 7.5 for 24 h, and stability was monitored by UPLC analysis.

[1] = tested on: ESKAPE pathogens (E. faecalis, S. aureus, K. pneumoniae, A. baumannii, P. aeruginosa, E. coli); assay: MIC summary over the ESKAPE panel; type: cell-based
Procedure: (§2) The following strains were used in this study: Escherichia coli, ATCC 25922, Staphylococcus aureus, epidemic methicillin-resistant EMRSA-15, Klebsiella pneumoniae, clinical isolate from St George’s, University of London (SGUL, London, UK), Acinetobacter baumannii, clinical isolate from SGUL, Pseudomonas aeruginosa, PA01 wildtype strain, and Enterococcus faecalis, vancomycin-resistant ATCC 51299.
(§3) The minimal inhibitory concentration (MIC) was determined in a microdilution assay using Mueller–Hinton (MH) or Brain Heart Infusion Broth (BHI) broth following a previously published protocol. Briefly, a twofold serial dilution of the antibiotics and peptides were prepared and added to a bacteria solution, resulting in 2–5 10^5 CFU/mL. The microtiter plates (polypropylene, Corning, Corning, NY, USA) were incubated for 18 h at 37 °C and MICs were taken visually. Based on our experience with proline rich peptides, their low activity in Mueller–Hinton broth, and their strong activity in diluted broth, we decided to also measure the activity of the peptide set in a 1/5 dilution of the broth. MICs in the presence of serum were established using human serum (Zen-Bio, Durham, NC, USA) and heat-inactivated serum (Sigma-Aldrich, St. Louis, MO, USA). A total of 20% (v/v) of each human serum was mixed with bacterial solution and added to predetermined concentrations of antibiotics and peptides, resulting in a final 10% (v/v) concentration of serum and 2–5 × 10^5 bacteria.

Serum stability assay = type: in vitro ADME, human; conditions: 100% human serum
Procedure: as §1

[2] = tested on: Staphylococcus aureus, epidemic methicillin-resistant EMRSA-15; type: cell-based; conditions: ratio of MICs
Procedure: as §2, §3

[3] = tested on: Escherichia coli, ATCC 25922; type: cell-based
Procedure: as §2, §3

[4] = tested on: Pseudomonas aeruginosa, PA01 wildtype strain; type: cell-based
Procedure: as §2, §3

[5] = tested on: Acinetobacter baumannii, clinical isolate from SGUL; type: cell-based
Procedure: as §2, §3

[6] = tested on: Enterococcus faecalis, vancomycin-resistant ATCC 51299; type: cell-based
Procedure: as §2, §3

[7] = tested on: Klebsiella pneumoniae, clinical isolate from St George's, University of London; type: cell-based
Procedure: as §2, §3

E. coli (ATCC 25922) = assay: Time kill assay; type: cell-based, Escherichia coli; conditions: 1/5 (20%) MH broth, 3 times the MIC, 1 × 10^6 CFU/mL, 37 °C, 10-1440 min, three experiments
Procedure: Overnight culture of E. coli (ATCC 25922) was diluted for approximately two hours to achieve logarithmic phase. The logarithmic phase inoculum was then adjusted to 1 × 10^6 CFU/mL in 20% MH broth. Within a 1.5 mL microfuge tube (STARLAB (UK) Limited, Milton Keynes, UK), the peptides were added to the inoculum at a concentration that was threefold the MIC against E coli. The tubes were placed in a shaking incubator (225 rpm) at 37 °C. At predetermined time points between 0 and 24 h: 10, 20, 40, 60, 120, 240, and 1440 min for the peptides, and for the untreated control: 0, 60, 120, 240, and 1080 min, 100 µl samples were taken out. Furthermore, a 1 in 10 dilution series using sterile 10 mM Tris buffer (pH 7.5) was performed using the removed sample, then 5 × 5 µL were spotted for each dilution onto MH agar plates and incubated at 37 °C. The next day, the colonies were counted and the colony forming units, CFU/mL for each time point, were determined.

[8] = cited from earlier work
From the text: These loops were previously found to be abl ... || Fractions f4 to f6 of [L6-optP7]Mco were initially tested against P. aeruginosa, E. coli, and MRSA (Table 1) using a rich media, Mueller–Hinton broth (MH), with all fractions displaying about the same moderate activity (within errors of the method). […] Calcium (Ca^2+) and magnesium (Mg^2+) often have the strongest effect on the antimicrobial activity of AMPs; their theoretical concentration in MH brot ...

[9] = cited from earlier work; remark: listed apart in the source
From the text: We therefore followed two cyclization strategies: (i) a simple disulfide-cyclization by introduction of N- and C-terminal cysteines, and (ii) grafting onto an extremely stable scaffold with three disulfide bridges and backbone cyclization. The MCoTI-II cyclotide scaffold was used because of its inherent non-cytotoxic nature. […] The linear peptide was ...

red blood cells = conditions: cited from earlier work
From the text: The 9mer AMP was grafted into loops 5 and 6 of MCoTI-II. These loops were previously found to be abl ...

[10] = ratio of MICs (fold loss of activity in serum)

Question: Which pH stability (pH stability) does the source give for `CC[C@H](C)[C@@H]1NC(=O)[C@@H]2CSSC[C@@H]3NC(=O)[C@H](Cc4c[nH]c5ccccc45)NC(=O)[C@H]([C@@H](C)CC)NC(=O)[C@H]([C@@H](C)CC)NC(=O)[C@H](Cc4c[nH]c5ccccc45)NC(=O)[C@H](CCCNC(=N)N)NC(=O)[C@H](C(C)C)NC(=O)[C@H](CCCNC(=N)N)NC(=O)[C@H](CCCNC(=N)N)NC(=O)[C@H](CCCCN)NC(=O)[C@@H]4CSSC[C@H](NC(=O)[C@H](CC(=O)O)NC(=O)[C@H](CO)NC(=O)[C@H](CC(=O)O)NC(=O)[C@H](CCCNC(=N)N)NC(=O)[C@H](CCCNC(=N)N)NC(=O)[C@H](CSSC[C@H](NC1=O)C(=O)N[C@@H](CCCNC(=N)N)C(=O)NCC(=O)N[C@@H](CC(N)=O)C(=O)NCC(=O)N[C@@H](Cc1ccc(O)cc1)C(=O)N4)NC(=O)[C@H](CCCCN)NC(=O)[C@H](CCCCN)NC(=O)[C@H](CC(C)C)NC(=O)[C@H]([C@@H](C)CC)NC(=O)[C@H](CCCCN)NC(=O)[C@@H]1CCCN1C3=O)C(=O)N1CCC[C@H]1C(=O)NCC(=O)N[C@@H](C)C(=O)N2` [[L6-optP7]Mco] (cyclo(ACICRGNGYCKRRVRWIIWCPKILKKCRRDSDCPG); disulfide 2-20, 4-27, 10-33) here?
Answer: minor signs of degradation after 24 h at low pH

Question: And the “Average activity decrease, lower than for c-opt7” value [1]?
Answer: 1.6 fold

Question: And the “Average activity decrease factor compared to linear optP7” value ([1]; all conditions of Table 3)?
Answer: 15.5 fold

Question: And the “Antimicrobial activity in broth (in words)” value ([1]; undiluted broth)?
Answer: medium to weak

Question: What about the “Increase in stability against degradation in 100% human serum compared to the linear variant” value (Serum stability assay) of the same compound?
Answer: 33 fold

Question: What about the remaining at 24 h, 100 μM (Serum stability assay; male, 100% human serum (human male AB plasma), 100 μM, 37 °C, 24 h, UPLC-MS, read-out: Peptide still present after 24 h in human serum) of the same compound?
Answer: ~30%

Question: What about the “Ratio 1/5 MH + 10% serum/ 1/5MH” value [2] of the same compound?
Answer: >7.8

Question: And the “Ratio of MIC of cyclized peptide version over MIC of the linear peptide optP7” value (shortened to “Ratio of MIC of cyclized peptide version”) ([3]; 1/5 MH + 10% human serum)?
Answer: 18.8

Question: What about the “Improvement of activity when diluting the broth” value ([3]; 1/5 MH versus MH) of the same compound?
Answer: 31 fold

Question: What about the “Ratio of MIC of cyclized peptide version” value ([3]; 1/5 MH, average used for an MIC range) of the same compound?
Answer: 3.3

Question: And the “Ratio of MIC of cyclized peptide version” value ([3]; MH)?
Answer: 77.5

Question: And the “Ratio 1/5 MH + 10% serum/ 1/5MH” value [3, 10]?
Answer: 7.5

Question: What about the “Ratio of MIC of cyclized peptide version” value ([4]; 1/5 MH) of the same compound?
Answer: 10.0

Question: And the “Ratio of MIC of cyclized peptide version” value ([4]; 1/5 MH + 10% human serum)?
Answer: 1.3

Question: And the “Improvement of activity when diluting the broth” value ([4]; 1/5 MH versus MH, Table 2 data)?
Answer: 7.8 fold

Question: And the “Improvement of activity in diluted media” value ([4]; 1/5 MH versus MH, fractions of Table 1)?
Answer: 7.8 fold

Question: And the “Ratio of MIC of cyclized peptide version” value ([4]; MH)?
Answer: 20.6

Question: What about the “Ratio 1/5 MH + 10% serum/ 1/5MH” value [4, 10] of the same compound?
Answer: 1

Question: And the “Ratio of MIC of cyclized peptide version” value ([5]; 1/5 MH)?
Answer: 5

Question: What about the “Ratio of MIC of cyclized peptide version” value ([5]; 1/5 MH + 10% human serum) of the same compound?
Answer: 10.3

Question: And the “Improvement of activity when diluting the broth” value ([5]; 1/5 MH versus MH)?
Answer: 15.5 fold

Question: What about the “Ratio of MIC of cyclized peptide version” value ([5]; MH) of the same compound?
Answer: 41.3

Question: What about the “Ratio 1/5 MH + 10% serum/ 1/5MH” value ([5]; ratio of MICs) of the same compound?
Answer: 7.75

Question: And the “Ratio of MIC of cyclized peptide version” value ([6]; 1/5 BHI)?
Answer: 18.8

Question: What about the “Ratio of MIC of cyclized peptide version” value ([6]; 1/5 BHI + 10% human serum) of the same compound?
Answer: 2.6

Question: And the “Ratio 1/5 BHI + 10% serum/ 1/5BHI” value ([6]; ratio of MICs)?
Answer: 4.1

Question: And the “Ratio of MIC of cyclized peptide version” value ([7]; 1/5 MH)?
Answer: 20.7

Question: What about the “Improvement of activity when diluting the broth” value ([7]; 1/5 MH versus MH) of the same compound?
Answer: 2 fold

Question: And the “Ratio of MIC of cyclized peptide version” value ([7]; MH)?
Answer: 41.3

Question: What about the Kinetics of killing (E. coli (ATCC 25922)) of the same compound?
Answer: drastically slower acting

Question: With “Momordica trypsin inhibitor II (cyclo(SGSDGGVCPKILKKCRRDSDCPGACICRGNGYCG); also: three cystine-knot disulfides, pairing not given here; UniProt P82409 1-34, looked up) [MCoTI-II]” as the compound, how does the Antimicrobial activity [8] read?
Answer: does not exhibit any antimicrobial activity; also recorded: does not exhibit any antimicrobial effects

Question: What about the “Stability in human serum” value [9] of the same compound?
Answer: high stability

Question: And the “Hemolytic activity towards red blood cells” value (red blood cells)?
Answer: does not show hemolytic activity
